{"source": "patent EP2349259B1", "about": "“INHIBITORS OF MITOSIS FOR […] IN THERAPY” (Array Biopharma, Inc., priority 2008, dated 2010)", "key": {"[1]": {"assay": "Determination of MTD in a Phase 1 Study", "assay_type": "in vivo, human", "conditions": "IV on Days 1 and 2 every two weeks", "excerpt": "A total of 13 patients with various solid tumors and with a median age of 66 years (range 40-79 years old) were enrolled in a human phase 1 clinical trial (see \"Phase 1 Safety and Phamacokinetic Study of ARRY-520 in Solid Tumors.\" http://clinicaltrials.gov/ct2/show/NCT00462358). The solid tumors treated were breast cancer (2), colorectal cancer (2), non-small cell lung cancer (2), pancreatic cancer (2), bladder cancer, salivary gland cancer (adenoid cystic), esophageal cancer, mesothelioma cancer, and a mixed small cell lung cancer / non-small cell lung cancer. Compound 4 was provided for administration as a lyophilized powder contained in a Type 1 clear glass vial for IV use. The dose levels administered were 1.25 and 1.6 mg/m^2/day of Compound 4 on Days 1 and 2 every two weeks."}, "[2]": {"assay": "Tolerability in tumor growth inhibition study on different dosing schedules (HT-29)", "assay_type": "in vivo, nude mice", "conditions": "10 mg/kg IP on days 1, 2, 3, 4 and 5", "method": "Female nude mice were implanted subcutaneously with 5 x 10^6 HT-29 cells in 100 µL PBS. Eleven to fourteen days later, tumors were measured and mice randomized into groups of seven with average tumor volume in each group of approximately 230 mm^3. Compound 4 was dissolved in normal saline immediately prior to dosing, and administered IP at a volume of 10 mL/kg. Dosing was vehicle alone on day 1 and day 2; and Compound 4 at 20 mg/kg on day 1; 20 mg/kg on days I and 2; 20 mg/kg on days 1 and 3; 5 mg/kg on days 1, 2 and 3; 10 mg/kg on days 1, 2 and 3; 10 mg/kg on days 1, 2, 3, 4 and 5; 10 mg/kg on days 1 and 2; and 10 mg/kg on days 1 and 3. Animal weights and tumor volumes were measured (using electronic calipers) twice a week. Tumor volume was calculated using the formula: volume = (width^2 x length)/2. Dosing at 10 mg/kg on days 1, 2, 3, 4 and 5 was not tolerated (greater than 20% weight loss and/or death in some of the mice)."}, "[3]": {"assay": "Determination of MTD of Compound 4 in mice (HT-29 xenograft study)", "conditions": "mouse, in vivo; female nude mice with subcutaneous HT-29 xenografts; compound dissolved in normal saline", "method": "Female nude mice were implanted subcutaneously with 5 x 10^6 HT-29 cells in 100 µL PBS. Ten days Inter, tumors were measured and mice randomized into groups of three with average tumor volume in each group of approximately 240 mm^3. Compound 4 was dissolved in normal saline immediately before dosing. It was determined that 20 mg/kg was the MTD for Compound 4. Dose volume was 10 mL/kg. Dosing was vehicle alone on day 1; and Compound 4 at 20 mg/kg on day 1; and 20 mg/kg on days 1 and 3. At various time points after dosing (24, 48, 72, 96, 120 and 144 hours), mice were euthanized by CO2 inhalation, and the tumors were harvested and immediately placed in formalin. The vehicle control group samples were collected 24 and 72 hours after dosing. The day I group samples were collected 24, 48, 72 and 96 hours after that dose. The day 1 and day 3 group samples were collected 72, 96, 120 and 144 hours after the first dose. Paraffin blocks of tumor tissue were prepared by standard procedures. […] Spindle structures were manually counted in three 40X areas of each sample, using a fluorescent microscope. Apoptosis was quantitated by manual counting of TUNEL positive cells, also in three 40X areas of each sample (TUNEL staining using the In Situ Cell Death Detection Kit, AP from Roche)."}}, "data": [{"smiles": "CON(C)C(=O)N1N=C(c2cc(F)ccc2F)S[C@@]1(CCCN)c1ccccc1", "note": "[Compound 4, (S)-2-(3-aminopropyl)-5-(2,5-difluorophenyl)-N-methoxy-N-methyl-2-phenyl-1,3,4-thiadiazole-3(2H)-carboxamide]", "values": [{"measurement": "MTD", "setting": "[1]; 13 patients with various solid tumors, dose levels 1.25 and 1.6 mg/m^2/day", "value": 1.25, "unit": "mg/m^2/day"}, {"measurement": "DLTs", "setting": "[1]; patients with solid tumors", "value": "Grade 3 hyponatremia, anorexia, AST increase and febrile neutropenia"}, {"measurement": "MTD, cumulative dose per cycle", "setting": "[1]; patients with solid tumors", "value": 2.5, "unit": "mg/m^2"}, {"measurement": "tolerability of dosing schedule", "setting": "[2]; female nude mice with HT-29 xenografts", "value": "not tolerated"}, {"measurement": "weight loss", "setting": "[2]; weight loss and/or death in some of the mice", "value": "greater than 20%"}, {"measurement": "MTD", "setting": "[3]", "value": 20, "unit": "mg/kg"}]}]}
